Reference: patent US20190365843A1, “Antimicrobial Activity of Bioactive Compounds and Their Derivatives” (priority 2018, published 2019)

Columns and labels:
S. aureus = test: Agar diffusion growth inhibition zone, S. aureus; assay type: cell-based, Staphylococcus aureus; conditions: Staphylococcus aureus, 6 mm = no activity
Protocol: (§1) Among the bacterial agents tested Gram positive and Gram negative bacterial groups represented by Staphylococcus aureus and Enterococcus species and pathogenic members of Enterobacteriaceae, Vibronaceae, Aeromonadaceae, Pseudomonadaceae were tested. Freshly sub-cultured bacterial strains were inoculated into peptone water and incubated for 4 hours at 37° C. and adjusted to a turbidity of 0.5 (Gram Negative Bacilli), 1 (Gram Positive Cocci) and 4 (Pus cells, GNB, & few Budding yeast cells) Mc Farland standards (10^8 CFU/ml) respectively.
(§2) The different bioactive compounds and their derivatives were dissolved and diluted with solvents (DMSO), number of subsequent dilutions was performed to obtain different concentrations of the bioactive compounds and their derivatives. (Working Concentrations).
(§3) Agar well diffusion method is widely used to evaluate the antimicrobial activity of plants or other synthetic products. The suspension (microbial inoculum) was used to inoculate into Muller Hinton Agar Petri plates by lawn culture. Well (diameter 6 mm) were punched in the agar by sterile borer and filled with 50 μl of dissolved extracts. Plates were incubated in incubator at 37° C. for 24 hours and measured the growth inhibition zone diameters in mm compared with that of control (DMSO) showing no growth.
(§4) The bioactive compounds were tested with desired concentrations in 6 mm filter paper discs (Whatman, no. 3) were impregnated with 10 μL of each of the different dilutions. The discs were allowed to remain at room temperature until complete diluent evaporation and kept under refrigeration until ready to be used. 10 μL of diluents used to products were used as control. Tests were performed by Agar disk-diffusion testing method, which is the official method used in many clinical microbiology laboratories for routine antimicrobial susceptibility testing.
(§5) Similar to the procedure used in Agar well diffusion method, the suspension (microbial inoculum) was used to inoculate into Muller Hinton Agar Petri plates by lawn culture. Then, filter paper discs (about 6 mm in diameter), containing the test compound at a desired concentration, were placed on the agar surface. The Petri dishes were incubated under suitable incubation conditions.
(§6) Bioactive compounds showing zone of inhibition beyond the size of 6 mm are considered to be having an anti-microbial activity.

Enterococcus sp. = test: Agar diffusion growth inhibition zone, Enterococcus sp.; assay type: cell-based, Enterococcus species; conditions: 6 mm = no activity
Protocol: as §1, §2, §3, §4, §5, §6

Salmonella typhimurium = test: Agar diffusion growth inhibition zone, Salmonella typhimurium; assay type: cell-based; conditions: Salmonella enterica, 6 mm = no activity
Protocol: as §1, §2, §3, §4, §5, §6

Proteus sp. = test: Agar diffusion growth inhibition zone, Proteus sp.; assay type: cell-based, Proteus species; conditions: for zone of inhibition at 150 mg/mL: Proteus sp., 6 mm = no activity
Protocol: as §1, §2, §3, §4, §5, §6

E. coli ATCC 25922 = test: Agar diffusion growth inhibition zone, E. coli ATCC 25922; assay type: cell-based; conditions: Escherichia coli, 6 mm = no activity; for zone of inhibition at 100 mg/mL: ATCC25922, 100 mg; for zone of inhibition at 150 mg/mL: ATCC25922, 150 mg
Protocol: as §1, §2, §3, §4, §5, §6

EAEC = test: Agar diffusion growth inhibition zone, EAEC; assay type: cell-based, Enteroaggregative E. coli; conditions: for zone of inhibition at 100 mg/mL / zone of inhibition at 150 mg/mL: Escherichia coli, 6 mm = no activity
Protocol: as §1, §2, §3, §4, §5, §6

ETEC = test: Agar diffusion growth inhibition zone, ETEC; assay type: cell-based, Enterotoxigenic E. coli; conditions: for inhibition of growth: ETEC; for zone of inhibition at 100000 µg/disc / zone of inhibition at 150000 µg/disc: Escherichia coli
Protocol: (§7) Agar well diffusion method is widely used to evaluate the antimicrobial activity of plants or other synthetic products. The suspension (microbial inoculum) was used to inoculate into Muller Hinton Agar Petri plates by lawn culture. Well (diameter 6 mm) were punched in the agar by sterile borer and filled with 50 μl of dissolved extracts. Plates were incubated in incubator at 37° C. for 24 hours and measured the growth inhibition zone diameters in mm compared with that of control (DMSO) showing no growth. The antimicrobial agent diffuses in the agar medium and inhibits the growth of the microbial strain tested (Valgas et al., (2016) Methods for in vitro evaluating antimicrobial activity: A review. Journal of Pharmaceutical Analysis. 6(2):71-9).
(§8) Similar to the procedure used in Agar well diffusion method, the suspension (microbial inoculum) was used to inoculate into Muller Hinton Agar Petri plates by lawn culture. Then, filter paper discs (about 6 mm in diameter), containing the test compound at a desired concentration, were placed on the agar surface. The Petri dishes were incubated under suitable incubation conditions. Generally, antimicrobial agent diffuses into the agar and inhibits germination and growth of the test microorganism and then the diameters of inhibition growth zones are measured (Valgas et al., (2007) Screening methods to determine antibacterial activity of natural products. Brazilian Journal of Microbiology. 38:369-80; Balouiri M et al., (2016) Methods for in vitro evaluating antimicrobial activity: A review. Journal of Pharmaceutical Analysis. 6(2):71-9).

Shigella sp. = test: Agar diffusion growth inhibition zone, Shigella sp.; assay type: cell-based, Shigella species; conditions: Shigella
Protocol: as §7, §8

Pseudomonas sp. = test: Agar diffusion growth inhibition zone, Pseudomonas sp.; assay type: cell-based, Pseudomonas species; conditions: Pseudomonas
Protocol: as §7, §8

Klebsiella sp. = test: Agar diffusion growth inhibition zone, Klebsiella sp.; assay type: cell-based, Klebsiella species; conditions: 6 mm = no activity
Protocol: as §1, §2, §3, §4, §5, §6

Aeromonas sp. = test: Agar diffusion growth inhibition zone, Aeromonas sp.; assay type: cell-based, Aeromonas species; conditions: Aeromonas sp., 6 mm = no activity
Protocol: as §1, §2, §3, §4, §5, §6

Pleisiomonas sp. = test: Agar diffusion growth inhibition zone, Pleisiomonas sp.; assay type: cell-based, Pleisiomonas species; conditions: for zone of inhibition at 100 mg/mL / zone of inhibition at 150 mg/mL: Pleisiomonas sp., 6 mm = no activity
Protocol: as §1, §2, §3, §4, §5, §6

Candida abicans = test: Agar diffusion growth inhibition zone, Candida abicans; assay type: cell-based, Candida albicans; conditions: 6 mm = no activity
Protocol: as §1, §2, §3, §4, §5, §6

Vibrio cholera = test: Agar diffusion growth inhibition zone, Vibrio cholera; assay type: cell-based, Vibrio cholerae; conditions: Vibrio cholerae
Protocol: as §7, §8

Citrobacter sp. = test: Agar diffusion growth inhibition zone, Citrobacter sp.; assay type: cell-based, Citrobacter species; conditions: 6 mm = no activity
Protocol: as §1, §2, §3, §4, §5, §6

Row | Structure (SMILES) | zone of inhibition at 100 mg/mL (S. aureus) | zone of inhibition at 150 mg/mL (S. aureus) | zone of inhibition at 100 mg/mL (Enterococcus sp.) | zone of inhibition at 150 mg/mL (Enterococcus sp.) | zone of inhibition at 100 mg/mL (Salmonella typhimurium) | zone of inhibition at 150 mg/mL (Salmonella typhimurium) | zone of inhibition at 150 mg/mL (Proteus sp.) | zone of inhibition at 100 mg/mL (E. coli ATCC 25922) | zone of inhibition at 150 mg/mL (E. coli ATCC 25922) | zone of inhibition at 100 mg/mL (EAEC) | zone of inhibition at 150 mg/mL (EAEC) | inhibition of growth (ETEC) | zone of inhibition at 100000 µg/disc (ETEC) | zone of inhibition at 150000 µg/disc (ETEC) | zone of inhibition at 100000 µg/disc (Shigella sp.) | zone of inhibition at 150000 µg/disc (Shigella sp.) | zone of inhibition at 100000 µg/disc (Pseudomonas sp.) | zone of inhibition at 150000 µg/disc (Pseudomonas sp.) | zone of inhibition at 100 mg/mL (Klebsiella sp.) | zone of inhibition at 150 mg/mL (Klebsiella sp.) | also measured
1 | O=C(/C=C/c1ccc(O)cc1)CC(=O)/C=C/c1ccc(O)cc1 [compound 3, Bis- demethoxycurcumin] | 6 mm | 6 mm | 6 mm | 6 mm | 6 mm | 6 mm | 7 mm | 6 mm | 6 mm | 6 mm | 6 mm | significantly inhibited the growth | 9 mm | 9 mm | 6 mm | 6 mm | 6 mm | 6 mm | 6 mm | 6 mm | zone of inhibition (Proteus sp.; Proteus species, at both concentrations of 100 mg and 150 mg): 7 mm; zone of inhibition at 100 mg/mL (Aeromonas sp.): 6 mm; zone of inhibition at 150 mg/mL (Aeromonas sp.): 6 mm; zone of inhibition at 100 mg/mL (Pleisiomonas sp.): 9 mm; zone of inhibition at 150 mg/mL (Pleisiomonas sp.): 9 mm; inhibition of growth (Pleisiomonas sp.; Plesiomonas species): inhibited; zone of inhibition at 100 mg/mL (Candida abicans): 6 mm; zone of inhibition at 150 mg/mL (Candida abicans): 6 mm; zone of inhibition at 100000 µg/disc (Vibrio cholera): 6 mm; zone of inhibition at 150000 µg/disc (Vibrio cholera): 6 mm; zone of inhibition at 100 mg/mL (Citrobacter sp.): 6 mm; zone of inhibition at 150 mg/mL (Citrobacter sp.): 6 mm
2 | COc1cc(/C=C/C(=O)CC(=O)/C=C/c2ccc(OC(C)=O)c(OC)c2)ccc1OC(C)=O [compound 4, O,O′- Diacetylcurcumin] | 6 mm | 6 mm | 6 mm | 6 mm | 6 mm | 6 mm | 6 mm | 6 mm | 6 mm | 6 mm | 6 mm | significantly inhibited the growth | 9 mm | 9 mm | 6 mm | 6 mm | 6 mm | 6 mm | 6 mm | 6 mm | zone of inhibition at 100 mg/mL (Aeromonas sp.): 6 mm; zone of inhibition at 150 mg/mL (Aeromonas sp.): 6 mm; zone of inhibition at 100 mg/mL (Pleisiomonas sp.): 6 mm; zone of inhibition at 150 mg/mL (Pleisiomonas sp.): 6 mm; zone of inhibition at 100 mg/mL (Candida abicans): 6 mm; zone of inhibition at 150 mg/mL (Candida abicans): 6 mm; zone of inhibition at 100000 µg/disc (Vibrio cholera): 6 mm; zone of inhibition at 150000 µg/disc (Vibrio cholera): 6 mm; zone of inhibition at 100 mg/mL (Citrobacter sp.): 6 mm; zone of inhibition at 150 mg/mL (Citrobacter sp.): 6 mm
3 | COc1cc(/C=C/C(=O)COC(=O)/C=C/c2ccc(O)c(OC)c2)ccc1O [compound 5, Calebin-A] | 6 mm | 6 mm | 6 mm | 6 mm | 6 mm | 6 mm | 6 mm | 6 mm | 6 mm | 7 mm | 7 mm | significantly inhibited the growth | 11 mm | 11 mm | 6 mm | 6 mm | 6 mm | 6 mm | 6 mm | 6 mm | inhibition of growth (EAEC): inhibited; zone of inhibition at 100 mg/mL (Aeromonas sp.): 6 mm; zone of inhibition at 150 mg/mL (Aeromonas sp.): 6 mm; zone of inhibition at 100 mg/mL (Pleisiomonas sp.): 6 mm; zone of inhibition at 150 mg/mL (Pleisiomonas sp.): 6 mm; zone of inhibition at 100 mg/mL (Candida abicans): 6 mm; zone of inhibition at 150 mg/mL (Candida abicans): 6 mm; zone of inhibition at 100000 µg/disc (Vibrio cholera): 6 mm; zone of inhibition at 150000 µg/disc (Vibrio cholera): 6 mm; zone of inhibition at 100 mg/mL (Citrobacter sp.): 6 mm; zone of inhibition at 150 mg/mL (Citrobacter sp.): 6 mm
4 | COc1cc(/C=C/C(=O)COC(=O)/C=C/c2ccc(OC(C)=O)c(OC)c2)ccc1OC(C)=O [compound 6, O,O′- Diacetylcalebin-A] | 6 mm | 6 mm | 6 mm | 6 mm | 6 mm | 6 mm | 6 mm | 6 mm | 6 mm | 7 mm | 7 mm | significantly inhibited the growth | 8 mm | 8 mm | 6 mm | 6 mm | 6 mm | 6 mm | 6 mm | 6 mm | inhibition of growth (EAEC): inhibited; zone of inhibition at 100 mg/mL (Aeromonas sp.): 6 mm; zone of inhibition at 150 mg/mL (Aeromonas sp.): 6 mm; zone of inhibition at 100 mg/mL (Pleisiomonas sp.): 6 mm; zone of inhibition at 150 mg/mL (Pleisiomonas sp.): 6 mm; zone of inhibition at 100 mg/mL (Candida abicans): 6 mm; zone of inhibition at 150 mg/mL (Candida abicans): 6 mm; zone of inhibition at 100000 µg/disc (Vibrio cholera): 6 mm; zone of inhibition at 150000 µg/disc (Vibrio cholera): 6 mm; zone of inhibition at 100 mg/mL (Citrobacter sp.): 6 mm; zone of inhibition at 150 mg/mL (Citrobacter sp.): 6 mm
